Patent US7648966B2, “Mannose-6-phosphonate compounds for the treatment of inflammatory diseases” (Pharmaxis Pty Limited, priority 2003, dated 2010)

Key:
[1] = test system: 51Cr-labeled T lymphocyte migration into the spleen; test: Inhibition of lymphocyte migration into lymphoid tissue (spleen) in vivo; parameters: species or system Balb/c mice; conditions: 5 mg per mouse iv with labeled cells; spleens removed 1.5 hours after injection; vs negative controls
Method: Lymphocytes were obtained from spleens of 6-8 week old female specific pathogen-free Balb/c mice (19-21 g). Single cell suspensions prepared by conventional means (pushing through a stainless steel screen). Red blood cells were lysed by treating with a solution of bicarbonate buffered ammonium chloride-EDTA (pH 7.3) and the preparation strained through a Falcon 2350 cell strainer. All cell preparative steps were performed on ice. Cell were suspended in a conventional lymphocyte culture medium (DMEM plus glucose, folic acid, L-asparagine, sodium bicarbonate, L-glutamine, sodium pyruvate, HEPES, 2-mercaptoethanol, penicillin, streptomycin, neomycin, and 2% FCS).
B lymphocytes were depleted by suspending the cells in purified rat anti-mouse CD45/B220 antibody (RA3-6B2 clone; PharMingen, USA) at a concentration of 4×10^7 cells/ml and incubated on ice for 20 minutes. An equal volume of culture medium (as above) was added and the cells centrifuged (200×g) and resuspended at a concentration of 10^7 cells/ml in BioMag goat ant-rat IgG (H&L) (“GARIG”) conjugated to magnetic beads (Bio Mag; Perseptive Diagnostics, Polysciences, Inc., USA). Following a 20 minute incubation on ice, with agitation every 5 minutes, cells binding to the GARIG/anti-CD45/B220 antibody complex were removed using magnetic separation (Dynal MPC-6, Dynal, USA). This procedure was repeated 4 times, resulting in a cell population containing approximately 80-90% T lymphocytes (determined by FACS analysis).
The cells were then washed in Hanks balanced salt solution (HBSS), resuspended in 5 ml of HBSS, and radiolabeled with ^51Cr for 30 minutes at 37° C. (as described above). The labeled cells were washed in PBS, centrifuged (200×g), and a portion were resuspended at a concentration of 3×10^7 cells/ml in either PBS (negative control) or PBS containing phenyl mannoside 6-phosphate (25 mg/ml in PBS; positive control) or PBS containing the test compound (25 mg/ml), and stored on ice. Cell viability was confirmed throughout the procedures by trypan blue exclusion. Balb/c mice were injected intravenously (iv) into the lateral tail vein with 0.2 ml containing 6×10^6 labeled lymphocytes and 0.2 ml of either PBS (negative control), 5 mg positive control or 5 mg test compound. All groups of mice were weight matched (±0.5 g).
Spleens from recipient mice were removed 1.5 hours after injection, and the cell-associated radioactivity was determined using a gamma counter (as above). Results of inhibition of lymphocyte migration into the spleen were expressed as a percentage reduction in the CPM of the spleens from treated animals compared with negative controls.
The phosphono-mannoside compounds of the present invention and their relative inhibition of lymphocyte migration in vivo (compared to negative controls) are presented in Table 2.

[2] = test system: MBP-specific T lymphocyte cell lines migrating across rat brain endothelial cell monolayer; test: Inhibition of T-lymphocyte migration across rat brain endothelial cell layer (Transwell, 51Cr-labeled cells); type: cell-based, Lewis rats; conditions: Rattus norvegicus, T-cell; 10 mM in upper well; 6 hours; compared with negative control; read-out: % inhibition (±SEM) of T cell migration
Method: Preparation of Brain Endothelial Cells (ECs)
Vascular ECs were isolated from rat brain capillaries of 6 to 8 week old Lewis rats according to the method of Risau, W et al., 1990, J. Cell Biol. 110:1757-1766 (which is incorporated herein by reference). Colonies of ECs were purified from astroglial cells and pericytes using anti-Thy1.1-antibody and complement-mediated lysis to remove unwanted Thy1.1+ cells.
The EC colonies were grown, using conventional methods, in Dulbecco's Modified Eagle's Medium (DMEM)-high glucose, supplemented, with 20% fetal calf serum (FCS), glutamine, pyruvate, nonessential amino acids, HEPES buffer and antibiotics (kanamycin, amphotericin), and heparin (all from GIBCO). Cultures were supplemented with 150 μg/ml “endothelial growth supplement” from Collaborative Biomedical Products. Upon reaching confluence, EC cultures were washed with 0.2% EDTA in phosphate buffered saline (PBS), trypsinized (Trypsin-EDTA, 0.1% final concentration), washed and re-treated with anti-Thy1.1 antibody for 40 min, washed and incubated with complement sufficient to lyse all Thy1.1+ cells (Behringwerke, AG, Marburg, Germany) at room temperature.
ECs were then plated on Matrigel®-coated 6.5 mm Transwells, […] (Corning Costar Corporation, Cambridge, Mass.). Presence of ECs and confluence of the monolayer were checked by measuring the electrical resistance (World Precision Instruments, New Haven, U.S.A., model EVOM-G) and by staining with FITC-labeled phalloidin (Sigma).
Myelin Basic Protein (MBP)-Specific T Cell Lines
To study the effect of agents of the present invention on T lymphocyte migration, MBP-specific T lymphocyte cell lines were generated according to the method of Ben-Nun et al., Europ. J. Immunol. 11:195-199 (1981); incorporated herein by reference) starting with lymphocytes from the LNs of Lewis rats that had been immunized with MBP in complete Freund's adjuvant (CFA). These cells were used for migration studies during the first 4 days of their propagation in IL-2-containing medium, following MBP restimulation in the presence of antigen-presenting cells (irradiated spleen or thymus cells from normal Lewis rats).
These stimulated T lymphocytes were radiolabeled with ^51Cr (Na^51Cr04, 37 MBq/ml, Amersham, UK) for 30 minutes at 37° C. with occasional agitation, they were then washed three times with DMEM and placed into the upper chamber of the Transwells at 5×10^5 cells in 100 μl of “migration medium.” Test and control substance were included in the upper wells at final concentrations of 0.1, 1 and 10 mM. Cell migration was assessed visually by light microscopy to gauge progress of the experiment. The experiment was terminated after 6 hours, whereupon the undersurface of the membrane filters were rinsed twice with 100 μl of ice-cold PBS-0.2% EDTA and combined with the medium of the lower chamber of the well. The combined material was counted for radioactivity in a gamma counter (Packard Auto-Gamma 5650 (Downer's Grove Ill., USA) gamma counter. Each “treatment” group was run in triplicate (test agent, control agent (glucose 6-phosphate) and no treatment).
Inhibition values are in comparison with the negative control.

Cc1ccc(O[C@H]2O[C@H](CCP(=O)(O)O)[C@@H](O)[C@H](O)[C@@H]2O)c(C)c1
% Inhibition of lymphocyte migration into spleens [1]: 82.4%
inhibition at 10000 µM [2]: 90 ± 4%
